{
  "source": "patent US11919854B2",
  "about": "“P2RX7 modulators in therapy” (Centre national de la recherche scientifique, priority 2018, dated 2024)",
  "key": {"DSS-induced colitis": {"test_system": "DSS-induced colitis", "test": "DSS-induced colitis mouse model", "assay_type": "in vivo, C57BL/6J mice", "method": "(A) Body weight loss and (B) clinical scores from C57BL/6J treated with 3% DSS during 5 days (J1 to J5), followed by 10 days of normal tap water. The treated group received HEI2328 (ip, 2.3 mg/kg in PBS, 10% DMSO). Data are representative of 2 independent experiments (n=20). Mean±SEM are shown. *, p<0.05; **, p<0.01 (Mann-Whitney test).\nThe inflammatory index was scored in a longitudinal (A) and a transversal section of the colon (B). Data are representative of 2 independent experiments (n=20). Mean±SEM are shown. *, p<0.05; **, p<0.01 (Mann-Whitney test).\n(A-D) Phenotypic analysis of immune cells in spleen of 20 mice treated with HEI2328 or non treated. Data are representative of 2 independent experiments (n=20). Mean±SEM are shown. *, p<0.05; **, p<0.01 (Mann-Whitney test).\nAll mice received dextran sulfate sodium (3% DSS, TbS consultancy) ad libitum from day 1 to 5 and returned to normal tap water for the following 10 days. Control mice (n=20) were injected daily intraperitoneally with placebo (PBS/10% DMSO), whereas treated mice received 2.3 mg/kg HEI2328 in PBS/10% DMSO. The inventors used the following semi-quantitative clinical score:\nBody weight loss was scored as follows: 0, no loss; 1, loss <5%; 2, loss <10%; 3, loss <20%; and 4, loss >20%.\nThe scores for stool consistency were measured as 0, normal; 1, loose stools; 2, watery diarrhea; or 3, severe watery diarrhea.\nRectal bleeding was scored as 0, no blood; 1, presence of petechia; 2, stools with a trace of blood; or 3, bleeding.\nInflammation score was performed by trained pathologists. Briefly, the severity of inflammation (none, mild, moderate, severe), extent of inflammation (none, mucosa, mucosa, and submucosa, transmural), crypt damage (none, basal to 1/3, basal to 2/3, crypt loss, crypts, and epithelium loss), and percentage of tissue affected by inflammation (0, 25, 50, 75, and 100%) were scored."}, "human P2RX7": {"molecular_target": "T1, human P2RX7 (Homo sapiens, UniProt Q99572)", "T1 construct": "expressed in transfected cells; host or cells: HEK cells", "T1 sequence (Q99572 1-595)": "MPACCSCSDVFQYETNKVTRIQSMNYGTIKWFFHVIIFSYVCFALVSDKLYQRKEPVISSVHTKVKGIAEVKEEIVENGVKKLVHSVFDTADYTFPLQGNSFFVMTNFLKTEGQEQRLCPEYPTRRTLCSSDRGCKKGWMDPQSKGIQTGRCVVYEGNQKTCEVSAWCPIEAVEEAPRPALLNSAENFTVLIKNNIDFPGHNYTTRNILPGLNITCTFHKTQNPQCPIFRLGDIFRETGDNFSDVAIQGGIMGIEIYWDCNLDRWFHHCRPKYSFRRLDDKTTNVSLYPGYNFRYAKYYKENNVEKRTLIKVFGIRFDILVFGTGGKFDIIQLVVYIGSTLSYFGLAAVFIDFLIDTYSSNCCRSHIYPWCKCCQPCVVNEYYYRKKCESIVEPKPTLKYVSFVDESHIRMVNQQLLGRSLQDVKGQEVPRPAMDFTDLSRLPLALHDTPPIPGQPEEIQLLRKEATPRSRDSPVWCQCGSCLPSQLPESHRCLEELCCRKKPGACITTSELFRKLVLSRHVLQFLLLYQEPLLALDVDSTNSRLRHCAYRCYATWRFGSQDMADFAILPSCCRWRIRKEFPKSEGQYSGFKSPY", "test": "Large pore opening with increasing BzATP in human P2RX7 expressing cells", "assay_type": "cell-based", "conditions": "increasing concentration of BzATP with or without HEI3090", "method": "A. Splenocytes from control or p2rx7^exon2 KO mice were isolated and treated with HEI3090 (50 μM) in presence of absence of BzATP (500 μM). B. Large pore opening induced by increasing concentration of BzATP in presence or absence of HEI3090 in human P2RX7 expressing cells.\nIndeed, with the same BzATP concentration, more cells are positive for Topro3 staining."}, "[1]": {"test_system": "NCI panel of 60 tumor cell lines", "test": "Toxicity on NCI panel of 60 tumor cell lines", "assay_type": "cell-based", "conditions": "HEK cell lines stably transfected with hP2RX7 or mP2RX7 and NCI panel of 60 human tumor cell lines", "source_text": "Toxicity of HEI_2333 and HEI_2336 was already tested on the NCI panel of 60 tumor cell lines (NCI 60-cell panel)."}},
  "data": [
    {"compound": "O=C(NCc1ccc(Cl)cc1Cl)[C@@H]1CCC(=O)N1C(=O)Nc1ccc(Cl)c(Cl)c1", "note": "[HEI2328, (S)—N^2-(2,4-Dichlorobenzyl)-N^1-(3,4-dichlorophenyl)-5-oxopyrrolidine-1,2-dicarboxamide]", "values": [
      {"measurement": "clinical score", "setting": "DSS-induced colitis; 2.3 mg/kg ip daily", "value": "more healthy and recovered quicker than control mice"},
      {"measurement": "recovery of original weight", "setting": "DSS-induced colitis; 2.3 mg/kg ip daily", "value": "recovered their original weight after 15 days"},
      {"measurement": "proportion of inflammatory monocytes in spleen", "setting": "DSS-induced colitis; CD11b+CD11c−Ly6c+Ly6g−CD3−NK1.1−B220−", "value": "statistically decreased"},
      {"measurement": "reduction of clinical signs compared with classical P2RX7 antagonists (literature)", "setting": "DSS-induced colitis; comparison with published antagonist data", "value": "more efficient than classical P2RX7 antagonists"},
      {"measurement": "inflammatory (histologic) index of colon", "setting": "DSS-induced colitis; day 15, colon sections", "value": "very low inflammatory index"},
      {"measurement": "body weight loss", "setting": "DSS-induced colitis; days 6 to 9, 2.3 mg/kg ip daily, 3% DSS days 1-5", "value": "lost statistically less weight than the control group"},
      {"measurement": "myeloid infiltrate in spleen", "setting": "DSS-induced colitis; treated mice (28 in non treated)", "value": 17, "unit": "%"},
      {"measurement": "lymphoid population in spleen", "setting": "DSS-induced colitis; treated mice (67 in non treated)", "value": 76, "unit": "%"},
      {"measurement": "Treg and Tγδ lymphocytes within lymphoid populations of spleen", "setting": "DSS-induced colitis; treated vs non treated", "value": "increased"},
      {"measurement": "proportion of conventional DC (cDC) and plasmacytoid DC (pDC) in spleen", "setting": "DSS-induced colitis; treated vs non treated", "value": "did not modify"}
    ]},
    {"compound": "O=C(NCc1ccc(Cl)cc1Cl)[C@@H]1CCC(=O)N1C(=O)Nc1ccc(Cl)nc1", "note": "[HEI3090, (S)—N^1-(6-Chloropyridin-3-yl)-N^2-(2,4-dichlorobenzyl)-5-oxopyrrolidine-1,2-dicarboxamide]", "values": [
      {"measurement": "large pore opening (Topro3 staining)", "setting": "human P2RX7", "value": "enhanced large pore opening in presence of BzATP"},
      {"measurement": "toxicity in absence of the endogenous P2RX7 ligand (ATP)", "setting": "[1]", "value": "non-toxic"}
    ]}
  ]
}
